The values that follow come from US9315563B2, “Peptides that inhibit angiotensin converting enzyme and peptides with antioxidant activity purified from ovotransferrin and methods of producing and using the same” (The Governors of the University of Alberta, priority 2009, dated 2016).

This test is described as follows: ORAC-FL assay (oxygen radical absorbance capacity). As to conditions: for ORAC: chemically synthesized peptides, Trolox equivalent; for Change of antioxidant activity on extension of the peptide: ORAC, relative to GWNI, WNIP or AGWNIP; for ORAC value (sign, in words): suggesting prooxidant activity. On the procedure: Briefly, 80 mM AAPH and 200 nM fluorescein in 75 mM phosphate buffer at pH 7.4 were prepared for each experiment. For each run, 20 μL of antioxidant, and 80 μL of phosphate buffer (or 100 μL of Trolox standard solutions at final concentrations of 1 to 8 μM) were placed in wells of a 96-well microplate, followed by addition of 50 μL of the fluorescein solution. The mixture was preincubated for 15 min at 37° C. 50 μL of AAPH solution was added rapidly using a multichannel pipet. The microplate was immediately placed in a Fluoroskan Ascent microplate reader (Thermo Electron Corporation) with 485-P excitation and 538-P emission filters and the fluorescence recorded every minute for 100 min. All readings were recorded using Fluoroskan Ascent software. The area under the curve of fluorescence decay (AUC) was calculated using Graphpad prism software (trial version). Regression equations between AUC and antioxidant concentrations were calculated for all the samples. The ORAC value was calculated by dividing the slope of sample regression curve by the slope of Trolox regression curve. Final ORAC values were expressed as μmol of Trolox equivalent/mg of protein or peptide.

Values joined by “and” are separate entries in the source; they are usually repeats but may differ in a detail not shown here. Identical values can stand only once.

For the compound LGFEYY, the ORAC is recorded as 7.25 ± 0.71 μmol/μmol.

Consider GWNI, for which the ORAC was 13.90 μmol/μmol and 13.90 ± 1.05 μmol/μmol.

Regarding VIPMGL, the ORAC was determined as 2.89 ± 0.15 μmol/μmol.

For LGFEY, the ORAC was 9.79 ± 0.55 μmol/μmol.

Turning to AIEWEGIESGSVEQA, the ORAC is listed as 0.95 ± 0.46 μmol/μmol.

With WNIP, the ORAC was 15.47 μmol/μmol and 15.47 ± 0.68 μmol/μmol.

Regarding AGWNI, the “Change of antioxidant activity on extension of the peptide” value (from here on “Change of antioxidant activity”) was “decreased the antioxidant activity by half” and the ORAC is recorded as 8.55 ± 0.60 μmol/μmol.

Regarding IEWEGIESGSVEQA, the ORAC was determined as 0.73 ± 0.16 μmol/μmol.

For the compound AGWNIP, the “Change of antioxidant activity” value is on record as “decreased the antioxidant activity by half” and the ORAC was found to be 7.64 ± 0.83 μmol/μmol.

On to `Oc1cc(O)c2c(c1)O[C@H](c1ccc(O)c(O)c1)[C@@H](O)C2` [(+)-catechin, reference compound], for which the ORAC came to 14.9 μmol/μmol.

As to PIAAEVYEHTEGSTTSY, the ORAC was determined as 1.68 ± 0.03 μmol/μmol.

For LSKAQSDFG, the ORAC is reported as −1.40 ± 0.69 μmol/μmol and the “ORAC value (sign, in words)” value is “negative ORAC values”.

AGWNIPIGT: the “Change of antioxidant activity” value is given as “did not decrease the antioxidant activity further” and the ORAC is recorded as 5.25 ± 0.26 μmol/μmol.

Take IANNEADAISLDGGQVFEAG: the ORAC came to 0.43 ± 0.05 μmol/μmol.

Turning to IAAEVYEHTEGSTTSY, the ORAC is 2.39 ± 0.17 μmol/μmol.

Regarding GWNIP, the “Change of antioxidant activity” value is “decreased the antioxidant activity by half” and the ORAC is listed as 6.19 ± 0.64 μmol/μmol.

LVEKGDVAFI: the ORAC is recorded as −0.07 ± 0.03 μmol/μmol and the “ORAC value (sign, in words)” value is on record as “negative ORAC values”.
